{"source": "patent US10010560B2", "about": "“Small molecule HSP70 inhibitors” (THE TRUSTEES OF THE UNIVERSITY OF PENNSYLVANIA, priority 2014, dated 2018)", "key": {"[1]": {"system": "tumor cells", "experiment": "Electron microscopy analysis of treated tumor cells", "assay_type": "cell-based", "from_the_text": "FIGS. 4A-4L illustrate that PET-16 impairs proteostasis. […] There is a general absence of obvious nuclei in PET-16 treated tumor cells. […] FIGS. 4D and 4E are gels of whole-cell extracts (WCE) prepared from human melanoma A875 (D) or 451 Lu (E) cells treated with DMSO, PES or PET-16 that were immunoprecipitated using an anti-HSP70 antibody. The excised band of about 70 kDa shown in the Coomassie gel is HSP70, as confirmed by liquid chromatography—tandem mass spectrometry analysis. FIGS. 4F-4I are western blots of cell lines were treated with DMSO, PES or PET-16 for 24 h and immunoblotted for the indicated proteins. FIG. 4J are western blots of indicated melanomas pretreated with DMSO, PES or PET-16, followed by treatment with IL-6. Cell extracts were immunoblotted for the proteins indicated. Inhibition of IL-6 induced STAT3 and STAT1 phosphorylation by PET-16. FIG. 4K is a western blot analysis indicating altered processing of cathepsin L from the larger precursor form to the smaller mature form in the indicated cells following PET-16 treatment for 24 h. FIG. 4L is a western blot of the human melanoma 451 Lu cells treated with DMSO, PES or PET-16 for 24 h. Cells were harvested in 1% NP40-containing lysis buffer, fractionated into detergent-soluble and detergent-insoluble preparations, and assayed by western blot for ubiquitin. […]"}, "[2]": {"system": "BRAF(V600E)", "experiment": "Western blot of client proteins in soluble and detergent-insoluble fractions", "assay_type": "cell-based", "details": "melanoma tumor cells, soluble fraction", "procedure": "PET-16 promotes the loss of HSP90/HSP70 client proteins from the soluble fraction and the accumulation of some of these client proteins in the protein detergent-insoluble cellular fraction. Human melanoma cell lines (451 Lu, 1205 Lu and WM852) and mouse melanoma cell line (Yumm), as indicated, were treated with DMSO, PES or PET-16 for 24 hours. Cells were fractionated into detergent-soluble and detergent-insoluble preparations and assayed by Western blot (WB) analysis for the proteins indicated. […] The expression of many of these proteins is reduced in the soluble cell fractions, and often the abundance increases in the detergent insoluble fractions. This is indicative of loss of function of the client proteins.\nWestern blotting, immunoprecipitations and B-PES pull down assays were performed as described in Leu 2009 and Leu 2011. Preparation of biotin-conjugated PES was described in Leu 2009 and Leu 2011; Balaburski, 2013. Liquid chromatography-tandem mass spectrometry was performed by the Genomics Institute and Abramson Cancer Center Proteomics Core Facility at the Perelman School of Medicine, University of Pennsylvania. Electron microscopy (EM) and EM imaging were performed by The Electron Microscopy Resource Laboratory, Biomedical Research Core Facilities, at the Perelman School of Medicine, University of Pennsylvania."}, "[3]": {"system": "mouse melanoma cell line Yumm 1.7", "experiment": "In vivo melanoma model, Yumm 1.7", "details": "single agent, C57BL/6 mice", "procedure": "FIGS. 14A and 14B provide evidence that PET-16 impairs melanoma growth in vivo as a single agent. A well-recognized pulmonary metastatic model was utilized in which immunocompetent, wild-type C57BL/6 mice were injected with the metastatic mouse melanoma cell line Yumm 1.7, as indicated. […] FIG. 14A is a summary of the steps entailed in the model."}, "[4]": {"target": "HSP70 (Homo sapiens, UniProt P0DMV8)", "sequence (P0DMV8 whole entry)": "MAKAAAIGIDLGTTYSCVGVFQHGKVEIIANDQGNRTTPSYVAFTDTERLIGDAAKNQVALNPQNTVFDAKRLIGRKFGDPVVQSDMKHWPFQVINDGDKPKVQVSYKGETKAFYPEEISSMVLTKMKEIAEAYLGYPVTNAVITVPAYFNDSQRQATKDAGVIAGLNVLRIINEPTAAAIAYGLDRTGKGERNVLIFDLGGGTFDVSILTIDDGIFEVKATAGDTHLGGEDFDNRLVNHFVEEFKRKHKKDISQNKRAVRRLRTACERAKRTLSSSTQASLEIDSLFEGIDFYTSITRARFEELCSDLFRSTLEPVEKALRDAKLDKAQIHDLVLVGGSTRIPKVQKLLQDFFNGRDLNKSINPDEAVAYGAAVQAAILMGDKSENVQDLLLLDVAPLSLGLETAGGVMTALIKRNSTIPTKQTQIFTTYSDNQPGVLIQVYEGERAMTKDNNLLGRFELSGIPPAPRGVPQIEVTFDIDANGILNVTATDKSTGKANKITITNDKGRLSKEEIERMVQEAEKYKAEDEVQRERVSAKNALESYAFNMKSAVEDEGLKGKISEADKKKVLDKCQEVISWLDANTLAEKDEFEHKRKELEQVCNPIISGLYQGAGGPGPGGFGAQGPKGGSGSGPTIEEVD", "experiment": "B-PES pull-down assay in cultured tumor cells", "assay_type": "cell-based", "parameters": "endogenous in cells", "details": "H1299 cells pretreated with excess (8×) compound for 1 h, then 20 μM B-PES", "from_the_text": "FIGS. 3A-3L illustrate that PET-16 binds directly to ADP-bound HSP70 and DnaK. Specifically, FIGS. 3A-3H are isothermal calorimetric titration (ITC) assays of the indicated compounds (NRLLLTG—SEQ ID NO: 7, PES or PET-16) with purified HSP70-ADP, DnaK-ADP or HSP70-ATP proteins. The data are representative of three independent experiments. FIGS. 3I and 3J are ITC assays for the interaction between HSP70 (aa 386-616 of SEQ ID NO: 2) protein and PET-16 (I) or TPP (J). Binding constants (Kd values) are shown (average and s.d. from three independent experiments). PET-16 also binds directly to the purified, full-length, nucleotide-free HSP70 protein, with a reported dissociation constant of 5.2+/−0.1 micromolar, which is the average and standard deviation from two independent experiments (data not shown). FIG. 3K is ITC assay of HSP70 protein preincubated with ADP and PES for 1 h. The mixture was titrated into the sample cell containing PET-16. The data are representative of three independent ITC experiments. FIG. 3L are western blots of human lung carcinoma (H1299) cells that were pretreated with DMSO or excess (8×) PET-16 for 1 h prior to the addition of 20 μM B-PES for 5 h and examined for the expression of HSP70 or BCL-xL. B-PES-containing complexes were captured by Avidin resins and immunoblotted either with anti-HSP70 or anti-BCL-xL antibody. […]"}}}
{"compound": "C(#C[P+](c1ccccc1)(c1ccccc1)c1ccccc1)c1ccccc1.[Br-]", "note": "[PET-16, triphenyl(phenylethynyl)phosphonium bromide]", "values": [{"measurement": "autophagy and proteostasis by EM", "setting": "[1]", "result": "altered autophagy and impaired proteostasis"}, {"measurement": "BRAF(V600E) protein abundance", "setting": "[2]", "result": "reduction"}, {"measurement": "melanoma growth in vivo", "setting": "[3]", "result": "inhibits melanoma xenograft growth"}, {"measurement": "amount of HSP70 in complex with B-PES", "setting": "[4]", "result": "clearly reduced"}]}
